Laboratory results as given in patent US11174244B2, “Isoquinolin-3-yl carboxamides and preparation and use thereof” (BioSplice Therapeutics, Inc., priority 2016, dated 2021).

Key:
secreted Aβ40 peptide = experiment: Secreted β-amyloid 40 (Aβ40) peptide assay in APP overexpressing SH-SY5Y-APP cells; format: cell-based; conditions: Homo sapiens, overnight (16-18 hours), supernatant
Procedure: SH-SY5Y cells were infected with lentivirus to overexpress amyloid (A4) beta precursor protein (APP), hereafter referred to as the SH-SY5Y-APP cells.
SH-SY5Y cells were seeded onto 6-well plates at 5.0×10
[formula] and incubated overnight at 37° C.
Polybrene added for permeability (H9268, Sigma). 24 hours post-transfection, the entire volume from each well was replaced with regular SH-SY5Y medium.
Puromycin-resistant cell were then expanded, harvested and banked. APP-overexpression was controlled by immunoblotting for total APP and Myc-DDK.
The cell assay procedure start 18 h prior to treatment, as SH-SY5Y-APP cells were seeded onto 96-well plates at 2.0×10^4
At this time, designated wells were seeded with SH-SY5Y cells that were seeded and treated with puromycin at 10
Cells were exposed overnight (16-18 hours) in a 37° C. incubator before supernatant was harvested. […] The original plates with seeded cells were tested for cytotoxicity by measure of adenosine triphosphate (ATP) release by adding CellTiter-Glo® diluted 1:4 in distilled water (G7573, Promega) and transferring lysed cells to a completely black 96-well plate to be read with the Cytation3. Plates containing supernatant were spun down at 1200 g for 10 minutes to remove any cellular debris. […]

IL-6 = IL-6 inhibition (HTRF) in LPS-stimulated human peripheral blood mononuclear cells; format: cell-based; conditions: IL-6 in LPS-stimulated huPBMCs; for value in parentheses after >10 (% inhibition at top concentration): where EC50 >10 μM; for EC50: 22 hours, dose-response starting from 10 μM
Procedure: After 22 hour incubation, a mixture of ani-IL6XL665 and anti-IL-6 Cryptate diluted in reconstitution buffer (Catalog #62IL6PEC, Cisbio Inc., Bedford, Mass.) was added to each well. […] All samples were processed in duplicate. […] EC50 was determined using software generated by Dotmatics Limited (Windhill Bishops Stortford Herts, UK) using the Levenberg-Marquardt 4 parameter fitting procedure with finite different gradients.

[1] = tested on: primary human fibroblasts derived from IPF patients (LL29 cells); experiment: Fibrosis assay: αSMA staining in TGF-β1 treated LL29 fibroblasts; format: cell-based; conditions: for EC50: LL29 fibroblasts treated with TGF-β1, 4 days, αSMA, dose-response 10 μM to […]
Wnt activity = experiment: Screening assay for Wnt activity (Sp5-Luc reporter gene assay in SW480 cells); format: cell-based, human; conditions: 36 to 48 hours
Procedure: The screening assay for Wnt activity is described as follows.
Following incubation, 15 μl of BriteLite Plus luminescence reagent (Perkin Elmer) was added to each well of the 384-well assay plates. The plates were placed on an orbital shaker for 2 min and then luminescence was quantified using the Envision (Perkin Elmer) plate reader.

DYRK1A kinase = DYRK1A kinase (Homo sapiens (Human), UniProt Q13627); experiment: DYRK1A kinase activity assay (Ser/Thr 18 peptide Z-lyte, FRET); format: biochemical; conditions: method calls the values IC50
GSK3β kinase = GSK3β kinase (Homo sapiens (Human), UniProt P49841); experiment: GSK3β kinase activity assay (Ser/Thr 09 peptide Z-lyte, FRET); format: biochemical; conditions: method calls the values IC50
GSK3β kinase, sequence (P49841 whole entry): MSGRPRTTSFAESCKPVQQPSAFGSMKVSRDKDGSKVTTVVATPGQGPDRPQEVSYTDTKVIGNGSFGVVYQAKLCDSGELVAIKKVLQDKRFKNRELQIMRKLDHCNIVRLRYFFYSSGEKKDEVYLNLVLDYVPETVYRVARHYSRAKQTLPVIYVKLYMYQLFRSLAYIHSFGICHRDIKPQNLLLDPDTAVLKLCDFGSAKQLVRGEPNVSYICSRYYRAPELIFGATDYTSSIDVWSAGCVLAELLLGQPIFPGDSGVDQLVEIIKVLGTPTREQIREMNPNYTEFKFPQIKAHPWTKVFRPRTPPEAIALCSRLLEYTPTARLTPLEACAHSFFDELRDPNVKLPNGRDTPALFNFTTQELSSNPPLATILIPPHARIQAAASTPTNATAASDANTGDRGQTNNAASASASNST

[2] = tested on: Tau phosphorylation at Ser396 (pSer396); experiment: Tau phosphorylation assay (pSer396 ELISA / western blot) in SH-SY5Y cells; format: cell-based, human; conditions: overnight (16-18 h) exposure
Procedure: Two days before treatment, cells were seeded onto 96 well plates at 5×10^4 cells/well.
Wells were visually checked for cell death or change in morphology and supernatants were tested for cytotoxicity by measurement of lactate dehydrogenase release (LDH, CytoToxOne kit, Promega) if necessary.
Cells were lysed with RIPA buffer complemented with phosphatase and protease inhibitors then lysates were spun down at 12,000 g for 10 min to remove any cellular debris. Lysates are then either directly tested for pSer396 by ELISA (Life Technology, Kit KHB7031) or loaded on NuPage Bis-Tris gels for western blot analysis. Colorimetric detection of ELISA signal is performed by Cytation3 plate reader (Biotek) and the chemiluminescence signal for HRP-linked antibodies used in western blotting is detected using a Carestream Image Station. The same pSer396 antibody is used for detection of pTau in both assays.

[3] = tested on: SW480 colon carcinoma cells; experiment: Cell viability assay (CellTiter-Glo) in SW480 cells; format: cell-based, human; conditions: four days incubation

Cn1cncc1-c1ccc2cnc(NC(=O)C3C(C)(C)C3(C)C)cc2c1 [Compound 269, 2,2,3,3-Tetramethyl-N-[6-(3-methylimidazol-4-yl)-3-isoquinolyl]cyclopropanecarboxamide]
IC50 (secreted Aβ40 peptide): > 10 µM

Cn1cc(-c2ccc3cnc(NC(=O)C4C(C)(C)C4(C)C)cc3c2)nn1 [Compound 277, 2,2,3,3-Tetramethyl-N-(6-(1-methyl-1H-1,2,3-triazol-4-yl)isoquinolin-3-yl) cyclopropane-1-carboxamide]
value in parentheses after >10 (% inhibition at top concentration) (IL-6): 4.0%

Cn1cc(-c2ccc3cnc(NC(=O)CN4C5CCC4COC5)cc3c2)cn1 [Compound 347, 2-(3-Oxa-8-azabicyclo[3.2.1]octan-8-yl)-N-(6-(1-methyl-1H-pyrazol-4-yl)isoquinolin-3-yl)acetamide]
value in parentheses after >10 (% inhibition at top concentration) (IL-6): 4.5%

Cn1cc(-c2ccc3cnc(NC(=O)CN4C5CCC4CC5)cc3c2)nn1 [Compound 513, 2-(7-Azabicyclo[2.2.1]heptan-7-yl)-N-(6-(1-methyl-1H-1,2,3-triazol-4-yl)isoquinolin-3-yl)acetamide]
value in parentheses after >10 (% inhibition at top concentration) (IL-6): 14.5%

Cc1nnc(-c2ccc3cnc(NC(=O)CN4C5CCC4CC5)cc3c2)s1 [Compound 959, 2-(7-Azabicyclo[2.2.1]heptan-7-yl)-N-(6-(5-methyl-1,3,4-thiadiazol-2-yl)isoquinolin-3-yl)acetamide]
value in parentheses after >10 (% inhibition at top concentration) (IL-6): 6.1%

Cc1nnc(-c2ccc3cnc(NC(=O)CN4C5CCC4COC5)cc3c2)s1 [Compound 962, 2-(3-Oxa-8-azabicyclo[3.2.1]octan-8-yl)-N-(6-(5-methyl-1,3,4-thiadiazol-2-yl)isoquinolin-3-yl)acetamide]
value in parentheses after >10 (% inhibition at top concentration) (IL-6): 9.6%

CC(C)CN1CCC[C@@H](C(=O)Nc2cc3cc(-c4cnn5c4CN(CCF)CC5)ccc3cn2)C1 [Compound 1002, (R)—N-(6-(5-(2-Fluoroethyl)-4,5,6,7-tetrahydropyrazolo[1,5-a]pyrazin-3-yl)isoquinolin-3-yl)-1-isobutylpiperidine-3-carboxamide]
value in parentheses after >10 (% inhibition at top concentration) ([1]; LL29 fibroblasts treated with TGF-β1, where EC50 >10 μM): 27.5%

Cn1cc(-c2ccc3cnc(NC(=O)C45CCN(CC4)CC5)cc3c2)cn1 [Compound 1071, N-(6-(1-Methyl-1H-pyrazol-4-yl)isoquinolin-3-yl)quinuclidine-4-carboxamide]
value in parentheses after >10 (% inhibition at top concentration) (IL-6): 8.8%

N-(6-(1-Methyl-1H-pyrazol-4-yl)isoquinolin-3-yl)-2-(6-azaspiro[2.5]octan-6-yl)acetamide [Compound 296]
EC50 (Wnt activity): 3480 nM
EC50 (DYRK1A kinase): 14.3 nM
EC50 (GSK3β kinase): 80 nM
EC50 [2]: 978 nM
EC50 [3]: 3460 nM
EC50 [1]: 1960 nM
EC50 (IL-6): 1580 nM

N-(6-(1-Methyl-1H-pyrazol-4-yl)isoquinolin-3-yl)-2-(pyrrolidin-1-yl-2,2,5,5-d4)acetamide [Compound 315]
EC50 (Wnt activity): 1590 nM
EC50 (DYRK1A kinase): 12.3 nM
EC50 (GSK3β kinase): 44 nM
EC50 [2]: 346 nM
EC50 [3]: 1250 nM
EC50 [1]: 1820 nM
EC50 (IL-6): 819 nM
